This is an account of results in patent publication US8703701B2 (Indiana University Research and Technology Corporation, priority 2009, dated 2014).

Starred links: 1 amine or outer side, 2 acyl side, 3 side chain; linkers in the order of their positions; H or OH if unused. Non-standard residues stand in square brackets, D forms with d. Residues, ends and D or L forms follow the SMILES beside them. Groups on a side chain read outwards from the residue. *: point of attachment. γGlu = O=C(O)[C@H](CCC(=O)[*:2])N[*:1]; Palmitoyl = CCCCCCCCCCCCCCCC(=O)*; Aib = CC(C)(N)C(=O)O

One test addresses T1, glucagon receptor (Homo sapiens, UniProt P47871).
T1 construct: expressed in transfected cells; host or cells: HEK293
As to the kind of experiment: cAMP induction, firefly luciferase reporter assay, glucagon receptor. The format is cell-based. The settings on record: for Activity at Glucagon Receptor % Relative Activity: compared to native glucagon. As to the method:
(§1) The ability of each peptide to induce cAMP was measured in a firefly luciferase-based reporter assay.
(§2) At the end of the incubation, 100 μL of LucLite luminescence substrate reagent (Perkin Elmer, Wellesley, Mass.) were added to each well. The plate was shaken briefly, incubated 10 min in the dark and light output was measured on MicroBeta-1450 liquid scintillation counter (Perkin-Elmer, Wellesley, Mass.).
On the technique in general: Reporter assays use an easily measured gene product as a stand-in for the process of interest.

For another test, the target named is T2, GLP-1 receptor (Homo sapiens, UniProt P43220).
T2 construct: expressed in transfected cells; host or cells: HEK293
As to the kind of experiment: cAMP induction, firefly luciferase reporter assay, GLP-1 receptor. The format is cell-based. The settings on record: for Activity at GLP-1 Receptor % Relative Activity: compared to native GLP-1. As to the method: as §1, §2

T1 sequence (P47871 26-477): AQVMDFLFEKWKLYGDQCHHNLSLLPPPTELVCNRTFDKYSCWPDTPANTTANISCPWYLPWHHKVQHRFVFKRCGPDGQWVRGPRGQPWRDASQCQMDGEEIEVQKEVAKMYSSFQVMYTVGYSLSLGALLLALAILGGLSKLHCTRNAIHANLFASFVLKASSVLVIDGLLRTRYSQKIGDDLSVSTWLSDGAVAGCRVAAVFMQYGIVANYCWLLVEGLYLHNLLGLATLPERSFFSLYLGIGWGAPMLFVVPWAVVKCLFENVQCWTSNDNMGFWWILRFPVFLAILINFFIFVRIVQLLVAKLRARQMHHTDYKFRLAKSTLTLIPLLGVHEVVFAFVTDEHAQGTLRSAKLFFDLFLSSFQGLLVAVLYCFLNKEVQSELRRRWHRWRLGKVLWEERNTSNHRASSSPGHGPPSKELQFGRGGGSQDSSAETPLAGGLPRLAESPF
T2 sequence (P43220 24-463): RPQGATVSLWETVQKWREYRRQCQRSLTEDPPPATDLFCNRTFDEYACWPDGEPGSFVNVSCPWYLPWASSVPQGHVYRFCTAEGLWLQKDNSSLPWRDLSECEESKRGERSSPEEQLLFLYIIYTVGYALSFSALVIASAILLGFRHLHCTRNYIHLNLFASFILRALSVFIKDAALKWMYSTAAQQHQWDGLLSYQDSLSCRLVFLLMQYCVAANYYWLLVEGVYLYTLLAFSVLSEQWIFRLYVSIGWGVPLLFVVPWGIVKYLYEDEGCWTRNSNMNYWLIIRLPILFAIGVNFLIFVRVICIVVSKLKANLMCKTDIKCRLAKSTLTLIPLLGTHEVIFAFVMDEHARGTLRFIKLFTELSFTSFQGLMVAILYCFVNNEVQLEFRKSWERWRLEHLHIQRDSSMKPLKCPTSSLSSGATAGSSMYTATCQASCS

Take `CC(C)C[C@H](NC(=O)[C@H](CC(C)C)NC(=O)[C@H](Cc1c[nH]c2ccccc12)NC(=O)[C@H](CS)NC(=O)[C@@H](NC(=O)[C@H](Cc1ccccc1)NC(=O)[C@H](CCC(=O)O)NC(=O)[C@H](CCCCN)NC(=O)[C@H](C)NC(=O)[C@H](CCCNC(=N)N)NC(=O)[C@H](CCCCN)NC(=O)C(C)(C)NC(=O)[C@H](CC(=O)O)NC(=O)[C@H](CC(C)C)NC(=O)[C@H](Cc1ccc(O)cc1)NC(=O)[C@H](CCCCN)NC(=O)[C@H](CO)NC(=O)[C@H](Cc1ccc(O)cc1)NC(=O)[C@H](CC(=O)O)NC(=O)[C@H](CO)NC(=O)[C@@H](NC(=O)[C@H](Cc1ccccc1)NC(=O)[C@@H](NC(=O)CNC(=O)[C@H](CCC(N)=O)NC(=O)[C@@H](CO)NC(=O)[C@@H](N)Cc1c[nH]cn1)[C@@H](C)O)[C@@H](C)O)C(C)C)C(=O)N[C@@H](CC(=O)O)C(=O)NCC(=O)NCC(=O)N1CCC[C@H]1C(=O)N[C@@H](CO)C(=O)N[C@@H](CO)C(=O)NCC(=O)N[C@@H](C)C(=O)N1CCC[C@H]1C(=O)N1CCC[C@H]1C(=O)N1CCC[C@H]1C(=O)N[C@@H](CO)C(N)=O` [compound 60] (H-H[dS]QGTFTSDYSKYLD[Aib]KRAKEFVCWLLDGGPSSGAPPPS-NH2; N-terminus assumed): the EC50 (usually the concentration that produces a half-maximal response) on glucagon receptor (Activity at Glucagon Receptor EC50 (nM), Table 2B) was found to be 0.006 nM. In addition, the “Activity at Glucagon Receptor % Relative Activity” value on glucagon receptor (Table 2B) is on record as 257%. Moreover, the “Activity at GLP-1 Receptor % Relative Activity” value at GLP-1 receptor (Table 2B) was 19%.

For the compound `CCCCCCCCCCCCCCCC(=O)N[C@@H](CCC(=O)NCCCC[C@H](NC(=O)[C@H](CC(=O)O)NC(=O)[C@H](CO)NC(=O)[C@@H](NC(=O)[C@H](Cc1ccccc1)NC(=O)[C@@H](NC(=O)CNC(=O)[C@H](CCC(N)=O)NC(=O)C(C)(C)NC(=O)[C@@H](N)Cc1c[nH]cn1)[C@@H](C)O)[C@@H](C)O)C(=O)N[C@@H](CO)C(=O)N[C@@H](CCCCN)C(=O)N[C@@H](Cc1ccc(O)cc1)C(=O)N[C@@H](CC(C)C)C(=O)N[C@@H](CC(=O)O)C(=O)N[C@@H](CCC(=O)O)C(=O)N[C@@H](CCC(N)=O)C(=O)N[C@@H](C)C(=O)N[C@@H](C)C(=O)N[C@@H](CCCCN)C(=O)N[C@@H](CCC(=O)O)C(=O)N[C@@H](Cc1ccccc1)C(=O)N[C@H](C(=O)N[C@@H](C)C(=O)N[C@@H](Cc1c[nH]c2ccccc12)C(=O)N[C@@H](CC(C)C)C(=O)N[C@@H](CC(C)C)C(=O)N[C@@H](CC(=O)O)C(=O)N[C@H](C(N)=O)[C@@H](C)O)[C@@H](C)CC)C(=O)O` [compound 52], the EC50 on glucagon receptor (Activity at Glucagon Receptor EC50 [pM], Table 3A) stood at 0.0029 nM; at GLP-1 receptor (Activity at GLP-1 Receptor EC50 [pM], Table 3A), 2.9 pM. For the same compound, on glucagon receptor (Table 3A), the “Activity at Glucagon Receptor % Relative Activity” value was 379%. Further, at GLP-1 receptor (Table 3A), the “Activity at GLP-1 Receptor % Relative Activity” value was determined as 1276%.

For the compound `CCCCCCCCCCCCCCCC(=O)N[C@@H](CCC(=O)N[C@@H](CCC(=O)NCCCC[C@H](NC(=O)[C@H](CC(=O)O)NC(=O)[C@H](CO)NC(=O)[C@@H](NC(=O)[C@H](Cc1ccccc1)NC(=O)[C@@H](NC(=O)CNC(=O)[C@H](CCC(N)=O)NC(=O)[C@@H](CO)NC(=O)[C@@H](N)Cc1c[nH]cn1)[C@@H](C)O)[C@@H](C)O)C(=O)N[C@@H](CO)C(=O)N[C@@H](CCCCN)C(=O)N[C@@H](Cc1ccc(O)cc1)C(=O)N[C@@H](CC(C)C)C(=O)N[C@@H](CC(=O)O)C(=O)NC(C)(C)C(=O)N[C@@H](CCCCN)C(=O)N[C@@H](CCCNC(=N)N)C(=O)N[C@@H](C)C(=O)N[C@@H](CCCCN)C(=O)N[C@@H](CCC(=O)O)C(=O)N[C@@H](Cc1ccccc1)C(=O)N[C@H](C(=O)N[C@@H](CS)C(=O)N[C@@H](Cc1c[nH]c2ccccc12)C(=O)N[C@@H](CC(C)C)C(=O)N[C@@H](CC(C)C)C(=O)N[C@@H](CC(=O)O)C(=O)N[C@H](C(N)=O)[C@@H](C)O)C(C)C)C(=O)O)C(=O)O` [compound 63] (H-H[dS]QGTFTSDK([γGlu-γGlu-Palmitoyl])SKYLD[Aib]KRAKEFVCWLLDT-NH2; N-terminus assumed), on glucagon receptor (Table 2B), the “Activity at Glucagon Receptor % Relative Activity” value came to 115%. At GLP-1 receptor (Activity at GLP-1 Receptor EC50 (nM), Table 2B), the half-maximal effective concentration (EC50) was 20 pM. At GLP-1 receptor (Table 2B), the “Activity at GLP-1 Receptor % Relative Activity” value was 345%.

As for `CCCCCCCCCCCCCCCC(=O)N[C@@H](CCC(=O)N[C@@H](CCC(=O)NCCCC[C@H](NC(=O)[C@H](CC(=O)O)NC(=O)[C@H](CO)NC(=O)[C@@H](NC(=O)[C@H](Cc1ccccc1)NC(=O)[C@@H](NC(=O)CNC(=O)[C@H](CCC(N)=O)NC(=O)C(C)(C)NC(=O)[C@@H](N)Cc1c[nH]cn1)[C@@H](C)O)[C@@H](C)CC)C(=O)N[C@@H](CO)C(=O)N[C@@H](CCCCN)C(=O)N[C@@H](Cc1ccc(O)cc1)C(=O)N[C@@H](CC(C)C)C(=O)N[C@@H](CC(=O)O)C(=O)NC(C)(C)C(=O)N[C@@H](CCCNC(=N)N)C(=O)N[C@@H](C)C(=O)N[C@@H](C)C(=O)N[C@@H](CCC(N)=O)C(=O)N[C@@H](CC(=O)O)C(=O)N[C@@H](Cc1ccccc1)C(=O)N[C@H](C(=O)N[C@@H](CCC(N)=O)C(=O)N[C@@H](Cc1c[nH]c2ccccc12)C(=O)N[C@@H](CC(C)C)C(=O)N[C@@H](CCSC)C(=O)N[C@@H](CC(=O)O)C(=O)N[C@H](C(=O)O)[C@@H](C)O)C(C)C)C(=O)O)C(=O)O` [compound 46], at glucagon receptor (Table 3A), the “Activity at Glucagon Receptor % Relative Activity” value came out at 2800%. In addition, the “Activity at GLP-1 Receptor % Relative Activity” value on GLP-1 receptor (Table 3A) was 4.9%.

Take `CCCCCCCCCCCCCCCC(=O)N[C@@H](CCC(=O)NCCCC[C@H](NC(=O)[C@H](CC(=O)O)NC(=O)[C@H](CO)NC(=O)[C@@H](NC(=O)[C@H](Cc1ccccc1)NC(=O)[C@@H](NC(=O)CNC(=O)[C@H](CCC(N)=O)NC(=O)[C@@H](C)NC(=O)[C@@H](N)Cc1c[nH]cn1)[C@@H](C)O)[C@@H](C)O)C(=O)N[C@@H](CO)C(=O)N[C@@H](CCCCN)C(=O)N[C@@H](Cc1ccc(O)cc1)C(=O)N[C@@H](CC(C)C)C(=O)N[C@@H](CC(=O)O)C(=O)N[C@@H](CCC(=O)O)C(=O)N[C@@H](CCCNC(=N)N)C(=O)N[C@@H](C)C(=O)N[C@@H](C)C(=O)N[C@@H](CCC(N)=O)C(=O)N[C@@H](CC(=O)O)C(=O)N[C@@H](Cc1ccccc1)C(=O)N[C@H](C(=O)N[C@@H](CS)C(=O)N[C@@H](Cc1c[nH]c2ccccc12)C(=O)N[C@@H](CC(C)C)C(=O)N[C@@H](CC(C)C)C(=O)N[C@@H](CC(=O)O)C(=O)N[C@H](C(N)=O)[C@@H](C)O)C(C)C)C(=O)O` [compound 59]: the “Activity at Glucagon Receptor % Relative Activity” value at glucagon receptor (Table 6) amounted to 490%. On GLP-1 receptor (Activity at GLP-1 Receptor EC50 [nM], Table 6), this compound showed an EC50 of 19 pM. Moreover, at GLP-1 receptor (Table 6), the “Activity at GLP-1 Receptor % Relative Activity” value amounted to 484%.

Consider `CCCCCCCCCCCCCCCC(=O)N[C@@H](CCC(=O)NCCCC[C@H](NC(=O)[C@H](CC(=O)O)NC(=O)[C@H](CO)NC(=O)[C@@H](NC(=O)[C@H](Cc1ccccc1)NC(=O)[C@@H](NC(=O)CNC(=O)[C@H](CCC(N)=O)NC(=O)[C@@H](CO)NC(=O)[C@@H](N)Cc1c[nH]cn1)[C@@H](C)O)[C@@H](C)O)C(=O)N[C@@H](CO)C(=O)N[C@@H](CCCCN)C(=O)N[C@@H](Cc1ccc(O)cc1)C(=O)N[C@@H](CC(C)C)C(=O)N[C@@H](CC(=O)O)C(=O)N[C@@H](CCC(=O)O)C(=O)N[C@@H](CCC(N)=O)C(=O)N[C@@H](C)C(=O)N[C@@H](C)C(=O)N[C@@H](CCCCN)C(=O)N[C@@H](CCC(=O)O)C(=O)N[C@@H](Cc1ccccc1)C(=O)N[C@H](C(=O)N[C@@H](CS)C(=O)N[C@@H](Cc1c[nH]c2ccccc12)C(=O)N[C@@H](CC(C)C)C(=O)N[C@@H](CC(C)C)C(=O)N[C@@H](CC(=O)O)C(=O)N[C@H](C(=O)O)[C@@H](C)O)[C@@H](C)CC)C(=O)O` [compound 76], for which, at glucagon receptor (Table 3C), the “Activity at Glucagon Receptor % Relative Activity” value came out at 1500%. On GLP-1 receptor (Activity at GLP-1 Receptor EC50 [nM], Table 3C), this compound gave a 50% effective concentration (EC50) of 3 pM. Moreover, at GLP-1 receptor (Table 3C), the “Activity at GLP-1 Receptor % Relative Activity” value worked out at 1200%.
